The numbers were not newly measured in patent US20220000907A1, “MOUTHWASH/GARGLE, NASAL/ORAL/NASAL SPRAY COVID AND BACTERIOCIDE ARRANGEMENT” (priority 2020, published 2022), which cites them from elsewhere.

Data set [1] has as its system all seven classes of viral organisms.
The next data set has as its system microbes. Particulars: 1.0% PVPI solution gives 0.1% available iodine.

In the case of polyvinylpyrrolidone iodine [PVPI], the “effectiveness against all classes of viruses (I-VII)” value in data set [1] (PVPI in solution) is given as “effective”. The “inactivation of all classes of viruses” value in data set [1] (effective concentration of 0.1% available iodine) was “inactivated”. Further, the “most effective antimicrobial concentration of PVPI (peak of bell curve of microbial killing)” value with microbes is listed as 1%.
